Laboratory results: US6914045B2, “Glycopeptide antibiotics” (Wyeth Holdings Corporation, priority 2001, dated 2005)
In brackets after ≈: the same amount, converted by molar mass.

Legend:
Assay in all cases: in vitro antibacterial evaluation, MIC by broth dilution
Format in all cases: cell-based
[1] = test system: Escherichia coli; conditions: broth dilution, 18 hours at 35° C.; for MIC Escherichia coli (ATCC 25922): strain ATCC 25922; for MIC Escherichia coli (GC 4559): strain GC 4559; for MIC Escherichia coli (GC 4560): strain GC 4560
Summary of the method: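 MIC is the lowest antibiotic concentration (tested 64-0.06 μg/mL) preventing growth of a 5×10^5 CFU/mL inoculum. Determined by broth dilution in Mueller-Hinton II medium following NCCLS standard M7-A2.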

[2] = test system: Enterococcus sp.; conditions: broth dilution, 18 hours at 35° C.; for MIC Enterococcus faecalis (ATCC 29212): strain ATCC 29212; for MIC Enterococcus faecalis (GC 2242): strain GC 2242; for MIC Enterococcus faecium (GC 2243): strain GC 2243; for MIC Enterococcus faecalis (GC 2691): strain GC 2691; for MIC Enterococcus faecalis (GC 3059): strain GC 3059; for MIC Enterococcus faecalis (GC 4552): strain GC 4552; for MIC Enterococcus faecalis (GC 4553): strain GC 4553; for MIC Enterococcus faecalis (GC 4554): strain GC 4554; for MIC Enterococcus faecium (GC 4556): strain GC 4556; for MIC Enterococcus faecium (GC 4557): strain GC 4557; for MIC Enterococcus avium (GC 4558): strain GC 4558; for MIC Enterococcus faecalis (GC 6189): strain GC 6189
Method: (§1) Methods for in vitro Antibacterial Evaluation (Table 1)
(§2) The minimum inhibitory concentration (MIC), the lowest concentration of the antibiotic which inhibits growth of the test organism, is determined by the broth dilution method using Muller-Hinton II […] (Baltimore Biological Laboratories) following the recommendations of the National Committee for Clinical Laboratory Standards [Methods for dilution antimicrobial susceptibility tests for bacteria that grow aerobically, approved standard M7-A2, National Committee for Clinical Laboratory Standards, Villanova, Pa.].
(§3) An inoculum level of 5×10^5 CFU/mL, and a range of antibiotic concentrations (64-0.06 μg/mL) is used. […] The test organisms include a spectrum of Gram-positive bacteria comprised of Staphylococcus sp., Streptococcus sp. and Enterococcus sp. These organisms include recent clinical isolates that are resistant to methicillin, penicillin and/or vancomycin.

[3] = test system: Streptococcus sp.; conditions: broth dilution, 18 hours at 35° C.; for MIC Streptococcus pneumoniae (ATCC 6301): strain ATCC 6301; for MIC Streptococcus pneumoniae (GC 1894): strain GC 1894; for MIC Streptococcus pyogenes (GC 4563): strain GC 4563; for MIC Streptococcus agalactiae (GC 4564): strain GC 4564; for MIC Streptococcus pneumoniae (GC 4565): strain GC 4565
Method: as §1, §2, §3

[4] = test system: Staphylococcus sp.; conditions: broth dilution, 18 hours at 35° C.; for MIC Staphylococcus aureus (ATCC 29213): strain ATCC 29213; for MIC Staphylococcus aureus (GC 1131): strain GC 1131; for MIC Staphylococcus aureus (GC 3051): strain GC 3051; for MIC Staphylococcus aureus (GC 3053): strain GC 3053; for MIC Staphylococcus aureus (GC 4541): strain GC 4541; for MIC Staphylococcus aureus (GC 4542): strain GC 4542; for MIC Staphylococcus aureus-SMITH (GC 4543): strain GC 4543; for MIC Staphylococcus aureus (GC 4544): strain GC 4544; for MIC Staphylococcus aureus (GC 4545): strain GC 4545; for MIC Staphylococcus haemolyticus (GC 4546): strain GC 4546; for MIC Coagulase Negative Staphylococcus (GC 4547): strain GC 4547; for MIC Coagulase Negative Staphylococcus (GC 4548): strain GC 4548; for MIC Coagulase Negative Staphylococcus (GC 4549): strain GC 4549; for MIC Coagulase Negative Staphylococcus (GC 4551): strain GC 4551; for MIC Coagulase Negative Staphylococcus (GC 6257): strain GC 6257
Method: as §1, §2, §3

| MIC Escherichia coli (ATCC 25922) [1] [µg/mL] | MIC Escherichia coli (GC 4559) [1] [µg/mL] | MIC Escherichia coli (GC 4560) [1] [µg/mL] | MIC Enterococcus faecalis (ATCC 29212) [2] [µg/mL] | MIC Enterococcus faecalis (GC 2242) [2] [µg/mL] | MIC Enterococcus faecium (GC 2243) [2] [µg/mL] | MIC Enterococcus faecalis (GC 2691) [2] [µg/mL] | MIC Enterococcus faecalis (GC 3059) [2] [µg/mL] | MIC Enterococcus faecalis (GC 4552) [2] [µg/mL] | MIC Enterococcus faecalis (GC 4553) [2] [µg/mL] | MIC Enterococcus faecalis (GC 4554) [2] [µg/mL] | MIC Enterococcus faecium (GC 4556) [2] [µg/mL] | MIC Enterococcus faecium (GC 4557) [2] [µg/mL] | MIC Enterococcus avium (GC 4558) [2] [µg/mL] | MIC Enterococcus faecalis (GC 6189) [2] [µg/mL] | MIC Streptococcus pneumoniae (ATCC 6301) [3] [µg/mL] | MIC Streptococcus pneumoniae (GC 1894) [3] [µg/mL] | MIC Streptococcus pyogenes (GC 4563) [3] [µg/mL] | MIC Streptococcus agalactiae (GC 4564) [3] [µg/mL] | MIC Streptococcus pneumoniae (GC 4565) [3] [µg/mL] | SMILES | further results |
| --- | --- | --- | --- | --- | --- | --- | --- | --- | --- | --- | --- | --- | --- | --- | --- | --- | --- | --- | --- | --- | --- |
| >128 | >128 | >128 | >128 | >128 | >128 | >128 | >128 | >128 | >128 | >128 | >128 | 64 (≈ 63.2 µM) | >128 | >128 | 8 (≈ 7.91 µM) | 8 (≈ 7.91 µM) | 32 (≈ 31.6 µM) | 32 (≈ 31.6 µM) | 8 (≈ 7.91 µM) | CC(c1ccccc1)C1NC(=O)CNC(=O)C(CO)NC(=O)C(C(O)C2CNC(=N)N2C2OC(CO)C(O)C(O)C2O)NC(=O)C(C(O)C2CNC(=N)N2)NC(=O)C(Cc2ccc3oc(=O)[nH]c3c2)NC1=O (stereo not drawn) [Example 22, Cyclo[3-(2,3-dihydro-2-oxo-1,3-benzoxazol-5-yl)alanyl-3-(2-iminoimidazolidin-4-yl)seryl-3-(3-hexopyranosyl-2-iminoimidazolidin-4-yl)serylserylglycyl-β-methylphenylalanyl]] | MIC Staphylococcus aureus (ATCC 29213) [4]: >128 µg/mL; MIC Staphylococcus aureus (GC 1131) [4]: >128 µg/mL; MIC Staphylococcus aureus (GC 3051) [4]: >128 µg/mL; MIC Staphylococcus aureus (GC 3053) [4]: >128 µg/mL; MIC Staphylococcus aureus (GC 4541) [4]: >128 µg/mL; MIC Staphylococcus aureus (GC 4542) [4]: >128 µg/mL; MIC Staphylococcus aureus-SMITH (GC 4543) [4]: >128 µg/mL; MIC Staphylococcus aureus (GC 4544) [4]: >128 µg/mL; MIC Staphylococcus aureus (GC 4545) [4]: >128 µg/mL; MIC Staphylococcus haemolyticus (GC 4546) [4]: >128 µg/mL; MIC Coagulase Negative Staphylococcus (GC 4547) [4]: >128 µg/mL; MIC Coagulase Negative Staphylococcus (GC 4548) [4]: 128 µg/mL (≈ 126 µM); MIC Coagulase Negative Staphylococcus (GC 4549) [4]: 64 µg/mL (≈ 63.2 µM); MIC Coagulase Negative Staphylococcus (GC 4551) [4]: >128 µg/mL; MIC Coagulase Negative Staphylococcus (GC 6257) [4]: 128 µg/mL (≈ 126 µM) |
| 32 (≈ 28.4 µM) | 32 (≈ 28.4 µM) | 1 (≈ 0.886 µM) | 8 (≈ 7.09 µM) | 8 (≈ 7.09 µM) | 4 (≈ 3.55 µM) | 8 (≈ 7.09 µM) | 16 (≈ 14.2 µM) | 8 (≈ 7.09 µM) | 8 (≈ 7.09 µM) | 8 (≈ 7.09 µM) | 16 (≈ 14.2 µM) | 2 (≈ 1.77 µM) | 4 (≈ 3.55 µM) | 8 (≈ 7.09 µM) | 8 (≈ 7.09 µM) | 16 (≈ 14.2 µM) | 4 (≈ 3.55 µM) | 8 (≈ 7.09 µM) | 16 (≈ 14.2 µM) | CC(c1ccccc1)C1NC(=O)CNC(=O)C(CO)NC(=O)C(CC2CNC(=N)N2C2OC(CO)C(O)C(O)C2O)NC(=O)C(CC2CNC(=N)N2)NC(=O)C(Cc2ccc3oc(-c4ccc5c(c4)Cc4ccccc4-5)nc3c2)NC1=O (stereo not drawn) [Example 42, Cyclo[3-[2-(9H-fluoren-2-yl)-1,3-benzoxazol-5-yl]alanyl-3-(2-iminoimidazolidin-4-yl)alanyl-3-(3-hexopyranosyl-2-iminoimidazolidin-4-yl)alanylserylglycyl-β-methylphenylalanyl]] | MIC Staphylococcus aureus (ATCC 29213) [4]: 4 µg/mL (≈ 3.55 µM); MIC Staphylococcus aureus (GC 1131) [4]: 2 µg/mL (≈ 1.77 µM); MIC Staphylococcus aureus (GC 3051) [4]: 8 µg/mL (≈ 7.09 µM); MIC Staphylococcus aureus (GC 3053) [4]: 4 µg/mL (≈ 3.55 µM); MIC Staphylococcus aureus (GC 4541) [4]: 2 µg/mL (≈ 1.77 µM); MIC Staphylococcus aureus (GC 4542) [4]: 2 µg/mL (≈ 1.77 µM); MIC Staphylococcus aureus-SMITH (GC 4543) [4]: 2 µg/mL (≈ 1.77 µM); MIC Staphylococcus aureus (GC 4544) [4]: 2 µg/mL (≈ 1.77 µM); MIC Staphylococcus aureus (GC 4545) [4]: 2 µg/mL (≈ 1.77 µM); MIC Staphylococcus haemolyticus (GC 4546) [4]: 2 µg/mL (≈ 1.77 µM); MIC Coagulase Negative Staphylococcus (GC 4547) [4]: 2 µg/mL (≈ 1.77 µM); MIC Coagulase Negative Staphylococcus (GC 4548) [4]: 1 µg/mL (≈ 0.886 µM); MIC Coagulase Negative Staphylococcus (GC 4549) [4]: 1 µg/mL (≈ 0.886 µM); MIC Coagulase Negative Staphylococcus (GC 4551) [4]: 4 µg/mL (≈ 3.55 µM); MIC Coagulase Negative Staphylococcus (GC 6257) [4]: 1 µg/mL (≈ 0.886 µM) |
